pIC50: −log10 of the molar value. Read-outs that look alike come from different tables or passages of the source.
Key:
[1] = system: Female Swiss-Webster mice; test: Test B: antagonism of apomorphine-induced climbing and apomorphine-induced disruption of swimming; assay type: in vivo; conditions: Mus musculus, po, read-out: minimum effective dose
Procedure: (§1) The compounds of Formula I are antagonists of dopamine D-2 receptors, and as such are predicted to be useful as antipsychotic drugs. D-2 antagonism can be shown by standard tests such as antagonism of [^3H]-spiperone binding (Test A), and/or antagonism of apomorphine-induced climbing and apomorphine- induced disruption of swimming (Test B).
Female Swiss-Webster mice weighing approximately 20 g were deprived of food for approximately 24 h and then dosed orally with various doses of either the vehicle or test agent over a range of doses (N = 20 mice per treatment group). Thirty minutes later they were dosed with apomorphine HCl at 1.25 mg/kg, sc, and placed into climbing cages. The climbing cages were 9 cm wide, 15 cm deep and 30 cm high. One wall had 27 horizontal rungs spaced 1 cm apart. Thirteen minutes after apomorphine each mouse was observed continuously for 1 min and the highest and lowest rung reached by its front paws was recorded. […] (The highest and lowest scores were 27 and 0, respectively.) Immediately after the 1-min climbing observation period each mouse was placed into a circular swimming tank for 2 min and the number of swims was counted. […] A "swim" was scored each time a mouse swam from one mark to the other. The mice were observed through overhead mirrors and the number of 180 degree swims was recorded for each mouse. […]

[2] = molecular target: T1, dopamine (DA) D-2 receptor subtype (Rattus norvegicus, UniProt P61169); test: Test A: dopamine D-2 receptor binding assay, displacement of [3H]-spiperone
T1 construct: Specifically, rat striatal membranes were used; from tissue; host or cells: rat striatum (membranes)
Source text: as §1
The receptor binding assay used to measure affinities of various compounds for the dopamine (DA) D-2 receptor subtype was that described by Saller and Salama in J Pharmacol Exp Ther 236, page 714, 1986.
Specifically, rat striatal membranes were used. Tissue membranes were prepared and washed once in 50 volumes of the appropriate Tris HCl buffer. For the D-2 receptor binding assay, striatal membranes were suspended to a final concentration of 8 mg/ml in 50 mM Tris HCl with 40 nM ketanserin, pH 7.7. Nonspecific binding to D-2 receptors was measured in the presence of 1.0 µM (+)-butaclamol. IC50s (drug concentration which produced a 50% displacement) for the displacement of 0.5 nM [^3H] spiperone were determined using at least five concentrations of each drug in triplicate. One-half milliliter of membrane suspension was incubated with the compound of interest or vehicle or nonspecific drug, ligand and appropriate Tris HCl buffer. […] The amount of drug bound to the membranes was assessed using liquid scintillation counting techniques. […]

T1 sequence (P61169 whole entry): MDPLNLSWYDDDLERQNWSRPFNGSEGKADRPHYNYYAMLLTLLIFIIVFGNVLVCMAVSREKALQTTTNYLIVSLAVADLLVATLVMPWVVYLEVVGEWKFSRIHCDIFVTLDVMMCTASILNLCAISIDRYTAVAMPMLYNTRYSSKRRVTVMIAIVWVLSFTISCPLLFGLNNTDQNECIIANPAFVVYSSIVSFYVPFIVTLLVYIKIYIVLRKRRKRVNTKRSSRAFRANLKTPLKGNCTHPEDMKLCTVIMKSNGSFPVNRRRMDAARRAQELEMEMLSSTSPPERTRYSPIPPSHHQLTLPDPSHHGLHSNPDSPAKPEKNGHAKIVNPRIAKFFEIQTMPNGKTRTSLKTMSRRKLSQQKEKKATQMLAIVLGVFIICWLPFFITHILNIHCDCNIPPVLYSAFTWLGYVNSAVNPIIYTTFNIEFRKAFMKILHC

Structure (SMILES) | minimal effective dose [1] [mg/kg] | pIC50 [2] | minimal effective dose ([1]; dosed orally 30 min before apomorphine HCl 1.25 mg/kg sc, decreased climbing score with increased swimming score, typical result) [mg/kg] | pIC50 ([2]; displacement of 0.5 nM [3H] spiperone, rat striatal membranes, 37°C for 15 min, typical result, read-out: IC50)
OC1(c2cccnc2)CCN(CC23CC(c4ccccc42)c2ccccc23)CC1 [Example 5, 1-(9,10-Dihydro-9,10-methanoanthracen-9-ylmethyl)-4-(3-pyridyl)piperidin-4-ol] | 20 | 7.92 |  | 
CC(C)(C)C1(O)CCN(CC23CC(c4ccccc42)c2ccc(Cl)cc23)CC1 (stereo not shown) [Example 49, 1-(2-Chloro-9,10-dihydro-9,10-methanoanthracen-9-ylmethyl)-4-(1,1-dimethylethyl)piperidin-4-ol] |  |  | 1.3 | 8.52
